Experimental data published in patent publication US9969698B2, “Quinoxalinyl-piperazinamide methods of use” (REXAHN PHARMACEUTICALS, INC., priority 2015, dated 2018).
Like-named read-outs stand apart in the source and are kept apart here.

Experiments:
[1] = Solid state characterisation of Form 1; assay type: physicochemical; conditions: crystalline solid
Text: A batch of RX-5902 was characterized by various solid state techniques. The supplied material was a crystalline solid, denoted as Form 1.

[2] = Solubility assessment in solvents; assay type: physicochemical; conditions: organic solvent or mixture, thermodynamic from solid
Protocol: RX-5902 (ca. 2 mg) was weighed in a 1.5 ml clear glass vials. An aliquot of the corresponding solvent or solvent mixture was added at RT and solubility was assessed after 10 min as shown in Table 12. Solutions and suspensions were then placed into a shaking chamber at 50° C. for 10 more minutes. If no dissolution was observed, another aliquot of solvent was added and samples were placed in the shaking chamber at 50° C. for 10 more minutes. This procedure was repeated until dissolution was achieved or a maximum of 400 vol was added.

p68 RNA helicase = target: T1, p68 RNA helicase (Homo sapiens, UniProt P17844); assay: DARTS target identification (thermolysin protection, Western blot); assay type: cell-based; conditions: MDA-MB-231 cells treated 0.1-10 μM for one hour
T1 construct: made in house
Protocol: MDA-MB-231 cells were plated onto 6 well plates and treated with RX-5902 at various concentrations (0, 0.1, 1 and 10 μM) for one hour. Cells were lysed with p-MER buffer containing protease/phosphatase inhibitors on ice. Cell lysates were treated with thermolysin protease (1:1,500 ratio) for 10 min at RT and the reaction was stopped by addition of 0.5 M EDTA solution. The reaction mixtures were separated on a 10% SDS-PAGE visualized by Coomassie staining. After identifying several candidate proteins from mass spectrometry sequencing analysis, the protein which interacted with RX-5902 was confirmed by western blot analysis.
Protein mix or cell lysates were separated by SDS-PAGE and transferred to PVDF membrane. The membrane was blocked by blocking buffer (1×TBST containing 5% BSA) at room temperature for 1 hour. After a brief wash, the membrane was incubated with primary antibody in blocking buffer at 4° C. overnight. […]
Well-established target identification method DARTS assay (Lomenick et al., Proc. Natl. Acad. Sci. USA, 106:21984-21989 (2009)) was used to find target proteins that would interact with RX-5902 in cancer cells. […] To identify this protected protein, the bands along with control were sliced out, and analyzed with LC-MS/MS by ProtTech (Phoenixville, Pa.). […]

MC38 murine colon cancer = assay: Syngeneic MC38 murine colon cancer model; assay type: in vivo
Protocol: Following the methods described below, the effect of RX-5902 on tumor growth in a syngeneic model using female C57BL/6 mice with MC38 murine colon cancer was examined. Tumor growth was measured in a treatment group compared to a control (vehicle treated) group (see Table 5 below for dosing schema and treatment regimen).
The present study consisted of five groups (n=10 per group) of female C57BL/6 mice bearing subcutaneous MC38 tumors (mean tumor volume range: 66-68 mm3) on Day (D1) of the study, when dosing began. Vehicle was administered orally (p.o.). RX-5902 was administered p.o. at 84.34 mg/kg (70 mg/kg active dose). Anti-PD-1 (RMP1-14) was administered at 100 μg/animal, intraperitoneally (i.p.). Group 1 mice served as controls and received PBS (vehicle) five days on, two days off for three cycles ((5/2)×3). Group 2 received RX-5902 (5/2)×3. Group 3 received anti-PD-1 twice weekly for two weeks (biwk×2). Group 4 received RX-5902 (5/2)×3 and anti-PD-1 biwk×2. The study endpoint was a tumor volume of 1500 mm^3 or 45 days, whichever came first. Tumor measurements were taken twice weekly until Day 45 with individual animals exiting the study upon reaching the tumor volume endpoint.
Partial treatment outcome was based on percent tumor growth inhibition (% TGI), defined as the percent difference between Day 28, chosen for the TGI analysis, median tumor volumes (MTVs) of treated and control mice. The results were analyzed and were deemed statistically significant at P≤0.05. A treatment that produced at least 60% TGI was considered to have potential therapeutic activity. Additionally, efficacy was determined from tumor growth delay (TGD), a measure of the increase in the median time to endpoint (TTE) in a treatment, compared to the control group. Response was additionally evaluated based on the number of study survivors, partial regression (PR) and complete regression (CR) responses, and logrank significance of differences in survival. Tolerability of the various treatments was assessed by body weight (BW) measurements and frequent observation for clinical symptoms and treatment-related (TR) side effects.

T1 sequence (P17844 whole entry): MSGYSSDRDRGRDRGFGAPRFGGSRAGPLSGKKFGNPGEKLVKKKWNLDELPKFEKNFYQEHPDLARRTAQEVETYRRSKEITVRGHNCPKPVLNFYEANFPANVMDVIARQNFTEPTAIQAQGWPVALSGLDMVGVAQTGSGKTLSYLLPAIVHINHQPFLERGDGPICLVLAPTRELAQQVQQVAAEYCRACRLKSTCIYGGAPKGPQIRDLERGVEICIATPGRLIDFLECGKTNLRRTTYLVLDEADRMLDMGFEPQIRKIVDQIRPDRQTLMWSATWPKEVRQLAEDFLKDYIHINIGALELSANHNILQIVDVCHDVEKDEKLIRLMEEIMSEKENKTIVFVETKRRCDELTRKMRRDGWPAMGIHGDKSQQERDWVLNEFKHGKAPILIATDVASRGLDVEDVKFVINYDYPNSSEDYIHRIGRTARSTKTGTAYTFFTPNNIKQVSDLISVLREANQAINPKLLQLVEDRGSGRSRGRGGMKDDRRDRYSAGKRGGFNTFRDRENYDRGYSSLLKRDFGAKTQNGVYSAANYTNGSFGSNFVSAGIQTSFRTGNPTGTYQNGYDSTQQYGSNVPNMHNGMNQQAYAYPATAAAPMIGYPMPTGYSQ

SMILES: COc1cc(OC)cc(N2CCN(C(=O)Nc3nc4cc(F)ccc4nc3OC)CC2)c1 [RX-5902, 4-(3,5-dimethoxyphenyl)-N-(7-fluoro-3-methoxyquinoxalin-2-yl)piperazine-1-carboxamide]
- hygroscopicity [1]: non-hygroscopic
- stability to humidity [1]: stable to exposure to humidity
- solubility at 10 min ([2]; DMSO, 50 °C, read-out: Solubility at 50° C.): ≥ 100 mg/mL
- solubility at 10 min ([2]; DMSO, read-out: Solubility at RT): < 100 mg/mL
- solubility at 10 min ([2]; MEK, 50 °C, read-out: Solubility at 50° C.): ≥ 12.5 mg/mL
- solubility at 10 min ([2]; MEK, read-out: Solubility at RT): < 100 mg/mL
- solubility at 10 min ([2]; MIBK, 50 °C, read-out: Solubility at 50° C.): ≥ 6.25 mg/mL
- solubility at 10 min ([2]; MIBK, read-out: Solubility at RT): < 100 mg/mL
- solubility at 10 min ([2]; THF, 50 °C, read-out: Solubility at 50° C.): ≥ 25 mg/mL
- solubility at 10 min ([2]; THF, read-out: Solubility at RT): < 100 mg/mL
- solubility at 10 min ([2]; acetone, 50 °C, read-out: Solubility at 50° C.): ≥ 12.5 mg/mL
- solubility at 10 min ([2]; acetone, read-out: Solubility at RT): < 100 mg/mL
- solubility at 10 min ([2]; acetonitrile, 50 °C, read-out: Solubility at 50° C.): ≥ 12.5 mg/mL
- solubility at 10 min ([2]; acetonitrile, read-out: Solubility at RT): < 100 mg/mL
- solubility at 10 min ([2]; ethanol, 50 °C, read-out: Solubility at 50° C.): ≥ 2.5 mg/mL
- solubility at 10 min ([2]; ethanol, read-out: Solubility at RT): < 100 mg/mL
- solubility at 10 min ([2]; ethyl acetate, 50 °C, read-out: Solubility at 50° C.): ≥ 12.5 mg/mL
- solubility at 10 min ([2]; ethyl acetate, read-out: Solubility at RT): < 100 mg/mL
- solubility at 10 min ([2]; isopropanol-10% water, 50 °C, read-out: Solubility at 50° C.): ≥ 2.5 mg/mL
- solubility at 10 min ([2]; isopropanol-10% water, read-out: Solubility at RT): < 100 mg/mL
- solubility at 10 min ([2]; methanol, 50 °C, read-out: Solubility at 50° C.): ≥ 2.5 mg/mL
- solubility at 10 min ([2]; methanol, read-out: Solubility at RT): < 100 mg/mL
- protection of ~60 kDa band (p68 RNA helicase) from protease (p68 RNA helicase): protected from the protease cleavage
- TGD (MC38 murine colon cancer; 45-day study, maximum possible 52%, RX-5902 84.34 mg/kg po (5/2)x3, anti-PD-1 100 μg/animal ip biwk x2): 51%
- median TTE (MC38 murine colon cancer; 45-day study, RX-5902 84.34 mg/kg po (5/2)x3, anti-PD-1 100 μg/animal ip biwk x2): 44.8 days
- % TGI (MC38 murine colon cancer; Day 28, RX-5902 84.34 mg/kg po (5/2)x3, anti-PD-1 100 μg/animal ip biwk x2): 90%
- MTV on D45 (MC38 murine colon cancer; median tumor volume of survivors): 14 mm^3
- partial regressions (PR) (MC38 murine colon cancer; n=10 per group): three
- survivors on D45 (MC38 murine colon cancer; n=10 per group): Five
